Among the data in BindingDB's records for doi:10.1016/j.bmcl.2005.02.006 (Wyeth Research, 2005) are EC50 values, retold here.

Experiment [1] in a line: In vitro effective concentration against beta amyloid protein 42 in ELISA.
A short description of experiment [2]: In vitro effective concentration against beta amyloid protein 40 in ELISA. Background: ELISA stands for enzyme-linked immunosorbent assay.
A short description of experiment [3]: In vitro inhibition of amyloid precursor protein 695 activity in CHO cells expressing human APP.

Structures are written as SMILES.

Consider `CCOC(=O)N1CCC(c2ccccc2C)(S(=O)(=O)c2ccc(Cl)cc2)CC1` [4-(4-Chloro-benzenesulfonyl)-4-o-tolyl-piperidine-1-carboxylic acid ethyl ester], for which the EC50 in experiment [1] came to 3.7 µM; in experiment [2], 2.7 µM.

In experiment [2], `CCOC(=O)N1CCC(c2ccccc2OC)(S(=O)(=O)c2ccc(OC)cc2)CC1` [4-(4-Methoxy-benzenesulfonyl)-4-(2-methoxy-phenyl)-piperidine-1-carboxylic acid ethyl ester] came in with an EC50 of 50.6 µM.

In experiment [2], `CCOC(=O)N1CCC(c2ccccc2C)(S(=O)(=O)c2ccc(OC)cc2)CC1` [4-(4-Methoxy-benzenesulfonyl)-4-o-tolyl-piperidine-1-carboxylic acid ethyl ester] displayed an EC50 of 24.5 µM.

Turning to `CCOC(=O)N1CCC(c2ccccc2)(S(=O)(=O)c2ccc(OC)cc2)CC1` [4-(4-Methoxy-benzenesulfonyl)-4-phenyl-piperidine-1-carboxylic acid ethyl ester], in experiment [2], the EC50 was determined as 97 µM. Compared with the last compound, the EC50 is about 4-fold higher.

Regarding `CCOC(=O)N1CCC(c2ccccc2OC)(S(=O)(=O)c2ccccc2)CC1` [4-Benzenesulfonyl-4-(2-methoxy-phenyl)-piperidine-1-carboxylic acid ethyl ester], in experiment [2], a half-maximal effect (EC50) was put at 62.7 µM.

Consider `CCOC(=O)N1CCC(c2ccccc2C)(S(=O)(=O)c2ccccc2)CC1` [4-Benzenesulfonyl-4-o-tolyl-piperidine-1-carboxylic acid ethyl ester], for which, in experiment [2], the EC50 is 48.6 µM.

For the compound `CCCNC(=O)OC[C@@H](C)N(c1cc(Cl)ccc1CO)S(=O)(=O)c1ccc(Cl)cc1` [BMCL18464 Compound 14], the concentration for a half-maximal effect (EC50) in experiment [2] came to 0.1 µM. This EC50 is about 490-fold lower than that of the compound before.

With `CCOC(=O)N1CCC(c2ccccc2OC)(S(=O)(=O)c2ccc(Cl)cc2)CC1` [ethyl 4-(4-chlorophenylsulfonyl)-4-(2-methoxyphenyl)piperidine-1-carboxylate], the values for the EC50 in experiment [1], in experiment [3] and in experiment [2] were 5 µM, 1.03 µM and 3.5 µM, respectively.

As for `CCOC(=O)N1CCC(c2ccccc2)(S(=O)(=O)c2ccc(Cl)cc2)CC1` [ethyl 4-[(4-chlorobenzene)sulfonyl]-4-phenylpiperidine-1-carboxylate], the figures for the EC50 in experiment [1] and in experiment [2] were 20.9 µM and 12.2 µM, respectively.

The EC50 is the concentration at which the effect is half-maximal. Read a low EC50 as a more potent agent.
